Results as given in ChEMBL document CHEMBL1138328, “Coumarin-based inhibitors of human NAD(P)H:quinone oxidoreductase-1. Identification, structure-activity, off-target effects and in vitro human pancreatic cancer toxicity” (J Med Chem, 2007).
Activity calls are given as the source filed them. The rule behind the calls is not given here.

Key:
[1] = biological target: T1, NAD(P)H dehydrogenase [quinone] 1 (Homo sapiens, UniProt P15559)
Description: Inhibition of human recombinant NQO1

[2] = biological target: T1, NAD(P)H dehydrogenase [quinone] 1; remark: listed apart in the source
Description: Inhibition of human recombinant NQO1 in presence of BSA

[3] = system: MIA PaCa-2; experiment: Effect on respiration rate in human MIA PaCa2 cells assessed as oxygen consumption per 10^6 cells at 100 uM; format: functional
[4] = system: MIA PaCa-2; experiment: Cytotoxicity against human MIA PaCa2 cells by MTT assay; format: functional, cell-based
[5] = system: MIA PaCa-2; experiment: Growth inhibition of human MIA PaCa2 cells; format: functional, cell-based
[6] = system: MIA PaCa-2; experiment: Induction of superoxide formation in human MIA PaCa2 cells; format: functional, cell-based

T1 sequence (P15559 whole entry): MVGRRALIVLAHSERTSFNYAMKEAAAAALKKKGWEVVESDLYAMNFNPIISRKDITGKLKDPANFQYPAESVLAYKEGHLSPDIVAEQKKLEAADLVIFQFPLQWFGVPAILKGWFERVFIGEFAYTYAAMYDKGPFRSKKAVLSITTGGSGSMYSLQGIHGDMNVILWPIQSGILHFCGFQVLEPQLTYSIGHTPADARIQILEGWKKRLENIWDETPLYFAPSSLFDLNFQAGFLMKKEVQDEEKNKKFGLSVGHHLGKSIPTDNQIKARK

Structure (SMILES) | IC50 [1] [µM] | IC50 [2] [µM] | Activity [3] [nmol/min] | IC50 [4] [µM] | Activity [5] | Activity [6]
Nc1cc(=O)oc2ccccc12 | 3.25 | 13 | – | – | – | –
O=c1oc2ccccc2c(O)c1C1c2ccccc2Oc2c1c(=O)oc1ccccc21 (stereo unspecified) | – | – | 2.5 | 150 | Dose-dependent effect | –
COc1cc(C(c2c(O)c3ccccc3oc2=O)c2c(O)c3ccccc3oc2=O)ccc1O | 0.65 | 10 | – | – | – | –
O=C1OC2C=CC=CC2=C2Oc3c(c(=O)oc4ccccc34)C(c3c(O)c4ccccc4oc3=O)C12 (stereo unspecified) | 0.25 | 0.6 | 2.5 | 140 | Dose-dependent effect | –
O=c1c(C(c2ccco2)c2c(O)oc3ccccc3c2=O)c(O)oc2ccccc12 | 1.3 | 5.9 | – | – | – | –
O=c1c(C(c2ccc3ccccc3c2)c2c(O)oc3ccccc3c2=O)c(O)oc2ccccc12 | 0.14 | 8.5 | – | – | – | –
COc1ccc(C(c2c(O)c3ccccc3oc2=O)c2c(O)c3ccccc3oc2=O)cc1 | 0.22 | 8.7 | – | – | – | –
O=c1c(C(c2cccs2)c2c(O)oc3ccccc3c2=O)c(O)oc2ccccc12 | 0.55 | 10 | – | – | – | –
O=c1c(C(c2cnc3ccccc3c2)c2c(O)oc3ccccc3c2=O)c(O)oc2ccccc12 | 0.38 | 18 | – | – | – | –
O=c1oc2ccccc2c(O)c1Cc1c(O)c2ccccc2oc1=O [DICUMAROL] | – | – | 7 | 75 | Dose-dependent effect | Active
O=c1c(Cc2c(O)oc3cc(O)ccc3c2=O)c(O)oc2cc(O)ccc12 | 0.005 | 0.35 | 2.6 | 190 | Dose-dependent effect | –
